Experiments:
[1] = test system: plasma cytokines, chemokines and soluble angiogenic factors; experiment: Plasma cytokine, chemokine and soluble factor titration on treatment (D-7, C1D1, C1D8); format: in vivo, human
Protocol: Frozen plasma and frozen tumor biopsy supernatants were subsequently thawed, centrifuged for 15 min at 1,000 g, then titrated using Bio-Plex Pro™ Human Chemokine Panel (40-Plex, ref. 171AK99MR2, Bio-rad), Angiogenesis Panel 1 (human) (ref. K151P3S-1, Meso Scale Discovery), Human PD-1 and PD-L1 antibody sets (ref. F214A-3 & F214C-3, Meso Scale Discovery) following manufacturer's instructions. Each sample was run twice with the average value of the doublet taken as the result. Acquisitions were done on Bio-Plex 200™ System and MESO™ QuickPlex SQ120 readers. Raw data from Meso Scale Discovery's kit were analyzed with MSD's Discovery Workbench 4.0.
Inventors took advantage of the one-week lead-in nintedanib monotherapy prior to the pembrolizumab introduction to analyze the respective effects of the two drugs. Sequential blood sampling was performed at baseline and on-treatment in order to identify selective phannacodynamic markers of Nintedanib and Pembrolizumab that occurred upon treatment in all patients and independently from the treatment efficacy. Plasma was obtained from blood draws collected at baseline (D-7), one week after the nintedanib monotherapy lead-in (C1D1) and one week after the addition of pembrolizumab (C1D8). […] CCL15 and CXCL10 were also decreasing in all patients upon Nintedanib monotherapy but this decrease was only significant for patients with DCB (FIG. 10A).

[2] = PEMBIB trial, mesothelioma expansion cohort: safety and tolerability (CTCAE Version 4.03); parameters: species or system human; conditions: in vivo
advanced mesothelioma = conditions: monotherapy; n=118; cited from earlier work
[3] = D-7 vs C1D1, one-week nintedanib monotherapy, patients with both DCB and No DCB
[4] = nintedanib monotherapy week, all patients, only significant for DCB
[5] = one week after initiation of pembrolizumab, DCB and No DCB
[6] = upon pembrolizumab addition (C1D1 to C1D8), only significant in No DCB

With `COC(=O)c1ccc2c(c1)NC(=O)/C2=C(\Nc1ccc(N(C)C(=O)CN2CCN(C)CC2)cc1)c1ccccc1` [nintedanib] the “blood Angiopoietin-2 level” value [1, 3] was “significantly decreased”, the “blood CCL21 level” value [1, 3] was “significantly decreased” and the “blood CCL23 level” value [1, 3] was “significantly decreased”. For the same compound, the “plasma CCL8 level” value ([1]; first week of nintedanib, patients with DCB) was “tended to decrease”, the “plasma CCL8 level” value ([1]; first week of nintedanib, patients with No DCB) was “significantly increased” and the “plasma CCL15 level” value [1, 4] was “decreasing”. For the same compound, the “plasma CXCL10 level” value [1, 4] was “decreasing” and the “tolerability of nintedanib 150 mg BID versus 200 mg BID” value [2] was “better tolerated”.

With pembrolizumab the “circulating soluble PD-1 (sPD1) median level” value ([1]; C1D8, one week after addition of pembrolizumab to nintedanib, both DCB and No DCB) was “above 10 ng/mL”, the “plasma CCL19 level” value ([1]; after one week of combination with pembrolizumab, all patients) was “increase” and the “circulating soluble PD-L1 (sPDL1) level” value ([1]; one week after addition of pembrolizumab, all patients) was “significantly increased”. The CXCL9 serum level [1, 5] was “significant rise”, the CXCL10 serum level [1, 5] was “significant rise” and the CXCL11 serum level [1, 5] was “significant rise”. The CXCL13 serum level [1, 5] was “significant rise”, the “plasma CCL3 level” value [1, 6] was “increased” and the “plasma CCL8 level” value [1, 6] was “increased”. The “plasma CCL17 level” value [1, 6] was “increased”, the “plasma CCL23 level” value [1, 6] was “increased” and the “plasma CXCL2 level” value [1, 6] was “decreased”. The “objective response rate (ORR; BORR per RECIST1.1)” value (advanced mesothelioma) was 8%.
